Experimental data as given in ChEMBL document CHEMBL1201862, “PubChem BioAssay data set” (2004).
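Five compound concentrations were applied to cells in 96-well plates for 48 hours; endpoints were derived by simple linear interpolation of the resulting dose-response curve. GI50: concentration for 50% inhibition of growth.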 Activity calls are given as the source filed them. Cut-off read from the data, not from the text of the source: active = GI50 up to about 1.1 µM and inactive = higher.

Key:
Experiment in all cases: inhibition of tumour cell growth, NCI panel, 48 h
MOLT-4 = tested on: MOLT-4
HOP-92 = tested on: HOP-92
NCI-H23 = tested on: NCI-H23
LOX IMVI = tested on: LOX IMVI
HOP-62 = tested on: HOP-62
UACC-257 = tested on: UACC-257
U-251 = tested on: U-251
SK-OV-3 = tested on: SK-OV-3
786-0 = tested on: 786-0
NCI-H522 = tested on: NCI-H522
NCI-H460 = tested on: NCI-H460
HL-60 = tested on: HL-60
SW-620 = tested on: SW-620
OVCAR-5 = tested on: OVCAR-5
IGROV-1 = tested on: IGROV-1
DMS-114 = tested on: DMS-114
HCC 2998 = tested on: HCC 2998
SK-MEL-5 = tested on: SK-MEL-5
OVCAR-8 = tested on: OVCAR-8

Measured: GI50

COc1ccc2c([nH]c3c(O)c(-c4c(C)cc5c([nH]c6c(CC=C(C)C)c(OC)ccc65)c4O)c(C)cc32)c1CC=C(C)C [BISMURRAYAFOLINE B]
inactive: MOLT-4 > 100 µM | HOP-92 > 100 µM | NCI-H23 > 100 µM | LOX IMVI > 100 µM | HOP-62 > 100 µM | UACC-257 > 100 µM | U-251 > 100 µM | SK-OV-3 > 100 µM | 786-0 > 100 µM | NCI-H522 > 100 µM | NCI-H460 > 100 µM | HL-60 > 100 µM | SW-620 > 100 µM | OVCAR-5 > 100 µM | IGROV-1 > 100 µM | DMS-114 > 100 µM | HCC 2998 > 100 µM | SK-MEL-5 > 100 µM | OVCAR-8 > 100 µM

O=C1C=C(Nc2ccccc2C(=O)CC(=O)C(=O)Nc2ccc(Cl)c(Cl)c2)c2ccccc2C1=O
inactive: MOLT-4 3.72 µM | HOP-92 75.9 µM | NCI-H23 21.1 µM | HOP-62 > 100 µM | UACC-257 20.9 µM | U-251 34.7 µM | SK-OV-3 > 100 µM | 786-0 35.3 µM | NCI-H522 18.6 µM | NCI-H460 36.2 µM | OVCAR-5 > 100 µM | IGROV-1 > 100 µM | DMS-114 18.2 µM | HCC 2998 > 100 µM | SK-MEL-5 7.78 µM | OVCAR-8 26.7 µM

CCC1=NC(CO)[C@H](c2ccccc2)O1 (stereo partly drawn)
inactive: HOP-92 > 100 µM | NCI-H23 > 100 µM | LOX IMVI > 100 µM | HOP-62 > 100 µM | UACC-257 > 100 µM | U-251 > 100 µM | 786-0 > 100 µM | NCI-H460 > 100 µM | SW-620 > 100 µM | OVCAR-5 > 100 µM | IGROV-1 > 100 µM | DMS-114 > 100 µM | SK-MEL-5 > 100 µM | OVCAR-8 > 100 µM

COc1cc(/C=C2\CCC(C)(CN(C)C)C2=O)cc(OC)c1OC (stereo not drawn)
inactive: MOLT-4 > 83.6 µM | HOP-92 > 100 µM | NCI-H23 > 100 µM | LOX IMVI > 100 µM | HOP-62 > 100 µM | UACC-257 > 100 µM | U-251 > 100 µM | SK-OV-3 > 100 µM | 786-0 > 100 µM | NCI-H522 50.7 µM | NCI-H460 > 100 µM | HL-60 1.57 µM | SW-620 > 100 µM | OVCAR-5 > 100 µM | IGROV-1 > 100 µM | DMS-114 99.5 µM | HCC 2998 > 100 µM | SK-MEL-5 > 93.3 µM | OVCAR-8 > 100 µM

C1=CC=C2NCCOCC/N=C3/C=CC=CC=C3NCCOCC/N=C\2C=C1
inactive: MOLT-4 44.9 µM | NCI-H23 > 100 µM | LOX IMVI 29 µM | HOP-62 > 100 µM | UACC-257 20 µM | U-251 > 100 µM | SK-OV-3 > 100 µM | 786-0 > 100 µM | NCI-H522 > 100 µM | NCI-H460 30.4 µM | HL-60 22.4 µM | SW-620 32.4 µM | OVCAR-5 > 100 µM | IGROV-1 > 100 µM | DMS-114 46.6 µM | HCC 2998 67.1 µM | SK-MEL-5 48.6 µM | OVCAR-8 57.4 µM

O=C(O)CP(=S)(S)c1ccccc1 (stereo not drawn)
inactive: MOLT-4 > 100 µM | HOP-92 > 100 µM | NCI-H23 > 100 µM | LOX IMVI > 100 µM | HOP-62 > 100 µM | UACC-257 > 100 µM | U-251 > 100 µM | SK-OV-3 > 100 µM | 786-0 > 100 µM | NCI-H522 > 100 µM | NCI-H460 > 100 µM | HL-60 > 100 µM | SW-620 > 100 µM | DMS-114 > 100 µM | SK-MEL-5 > 100 µM | OVCAR-8 > 100 µM

CCCCCCCCCCCC(=O)OCC1OC(n2cc(F)c(=O)[nH]c2=O)C(N)C(O)C1O (stereo not drawn)
inactive: MOLT-4 36.3 µM | HOP-92 > 100 µM | NCI-H23 84.7 µM | HOP-62 > 100 µM | UACC-257 > 100 µM | U-251 79.1 µM | SK-OV-3 > 100 µM | 786-0 > 100 µM | NCI-H522 75.3 µM | NCI-H460 78.9 µM | HL-60 38.9 µM | SW-620 > 100 µM | OVCAR-5 11.5 µM | IGROV-1 > 100 µM | DMS-114 > 100 µM | HCC 2998 > 100 µM | SK-MEL-5 > 100 µM | OVCAR-8 73.5 µM

COC(=O)C1=C(c2ccc(OC)c(OC)c2)OC(c2cc(OC)c(OC)c(OC)c2)C1 (stereo not drawn)
inactive: HOP-92 23.2 µM | NCI-H23 99.3 µM | LOX IMVI 99.5 µM | HOP-62 19.7 µM | UACC-257 > 100 µM | U-251 13.5 µM | SK-OV-3 15.3 µM | 786-0 20 µM | NCI-H460 > 100 µM | SW-620 41.6 µM | OVCAR-5 > 100 µM | IGROV-1 24.7 µM | DMS-114 37.6 µM | HCC 2998 > 100 µM | SK-MEL-5 29.3 µM | OVCAR-8 25.9 µM

Cc1ccc(NS(=O)(=O)c2cc(C(C)(C)C)ccc2OCCOCCOCCOc2ccc(C(C)(C)C)cc2S(=O)(=O)Nc2ccc(C)cc2)cc1
inactive: MOLT-4 > 100 µM | HOP-92 > 100 µM | NCI-H23 > 100 µM | LOX IMVI > 100 µM | HOP-62 > 100 µM | UACC-257 > 100 µM | U-251 > 100 µM | SK-OV-3 > 100 µM | 786-0 > 100 µM | NCI-H460 > 100 µM | HL-60 > 100 µM | SW-620 > 100 µM | OVCAR-5 > 100 µM | IGROV-1 > 100 µM | DMS-114 > 100 µM | HCC 2998 > 100 µM | SK-MEL-5 > 100 µM | OVCAR-8 > 100 µM

CC1=C(C(=O)Nc2ccc([N+](=O)[O-])cc2)C(c2cccc([N+](=O)[O-])c2)C(C(=O)Nc2ccc([N+](=O)[O-])cc2)=C(C)N1
inactive: MOLT-4 5.35 µM | HOP-92 5.31 µM | NCI-H23 13.3 µM | LOX IMVI 11.1 µM | HOP-62 64.3 µM | UACC-257 16 µM | U-251 9.71 µM | SK-OV-3 8.45 µM | 786-0 48.2 µM | NCI-H522 20.5 µM | NCI-H460 27.7 µM | HL-60 16.4 µM | SW-620 31.9 µM | OVCAR-5 > 100 µM | IGROV-1 21.2 µM | DMS-114 8.53 µM | HCC 2998 25.6 µM | OVCAR-8 17.8 µM

c1cc2c(cnc3cscc32)s1
inactive: MOLT-4 > 100 µM | HOP-92 > 100 µM | NCI-H23 > 100 µM | LOX IMVI > 100 µM | HOP-62 > 100 µM | UACC-257 > 100 µM | U-251 > 100 µM | 786-0 > 100 µM | NCI-H522 > 100 µM | NCI-H460 > 100 µM | HL-60 > 100 µM | SW-620 > 100 µM | OVCAR-5 > 100 µM | DMS-114 > 100 µM | HCC 2998 > 100 µM | SK-MEL-5 > 100 µM | OVCAR-8 > 100 µM

CCOC(=O)C1=C(C)N(NC(=O)c2ccccc2)C2(O)CCCC12C(=O)OCC (stereo not drawn)
inactive: MOLT-4 > 100 µM | LOX IMVI > 100 µM | HOP-62 > 100 µM | UACC-257 > 100 µM | U-251 > 100 µM | SK-OV-3 > 100 µM | 786-0 > 100 µM | NCI-H522 > 100 µM | NCI-H460 > 100 µM | HL-60 > 100 µM | SW-620 > 100 µM | OVCAR-5 > 100 µM | IGROV-1 > 100 µM | DMS-114 > 100 µM | HCC 2998 > 100 µM | SK-MEL-5 > 100 µM | OVCAR-8 > 100 µM

COC(=O)C1=C(C)N(NC(N)=O)C2(N)N(NC(N)=O)C(C)=C(C(=O)OC)C12C#N (stereo not drawn)
inactive: MOLT-4 > 100 µM | HOP-92 > 100 µM | NCI-H23 > 100 µM | LOX IMVI > 100 µM | HOP-62 > 100 µM | UACC-257 > 100 µM | U-251 > 100 µM | SK-OV-3 > 100 µM | 786-0 > 100 µM | NCI-H522 > 100 µM | NCI-H460 > 100 µM | HL-60 > 100 µM | SW-620 > 100 µM | OVCAR-5 > 100 µM | IGROV-1 > 100 µM | DMS-114 > 100 µM | HCC 2998 > 100 µM | OVCAR-8 > 100 µM

COC12CC(O)=C(C(C)=O)C(=O)C1(C)c1c(OC(C)=O)c(C)c(O)c(C(C)=O)c1O2 (stereo not drawn)
inactive: MOLT-4 18.6 µM | HOP-92 18.4 µM | NCI-H23 4.86 µM | LOX IMVI 10.2 µM | HOP-62 22.8 µM | UACC-257 23.6 µM | U-251 9.25 µM | 786-0 18.9 µM | NCI-H460 13.2 µM | HL-60 15.8 µM | SW-620 22.7 µM | OVCAR-5 31.9 µM | IGROV-1 7.89 µM | DMS-114 21.3 µM | HCC 2998 18.3 µM | OVCAR-8 10.8 µM

CCOC(=O)C(NC(=O)c1nc[nH]c1/N=N/N(C)C)C(C)C (stereo not drawn)
inactive: MOLT-4 > 100 µM | NCI-H23 > 100 µM | LOX IMVI > 100 µM | HOP-62 > 100 µM | UACC-257 > 100 µM | U-251 40.8 µM | SK-OV-3 > 100 µM | 786-0 > 100 µM | NCI-H522 > 100 µM | NCI-H460 > 100 µM | HL-60 > 100 µM | SW-620 > 100 µM | OVCAR-5 > 100 µM | IGROV-1 > 100 µM | DMS-114 > 100 µM | HCC 2998 > 100 µM | SK-MEL-5 > 100 µM | OVCAR-8 > 100 µM
